According to article PMC7440915, “Discovery of surrogate agonists for visceral fat Treg cells that modulate metabolic indices in vivo” (eLife, 2020):
Where no end group is shown, it is not given here.

System: vTreg53 Treg cells
Assay: Proliferation and activation of primary vTreg53 TCR-tg Treg cells in vitro
Format: cell-based, mouse
Conditions: 3 days; for proliferation: compared with no peptide / other SPs; for potency on primary vTreg53 Treg cells: in vitro
Text: Figure 4. SPs induce proliferation and activation of vTreg53 Treg cells in vitro and in vivo. (A–D) Proliferation and activation of vTreg53 Treg cells by different concentrations of SPs for 3 days in vitro (n = 3). (A) Representative flow cytometric plot of cell division. (B) Summary of cell proliferation. (C) Mean flourescence intensity (MFI) of CD44 staining in clonotype^+ Treg cells. (D) MFI of CD62L staining in clonotype^+ Treg cells. (E) Proliferation of transferred CD45.2^+ vTreg53 Treg cells in the spleen of CD45.1^+ B6 recipient mice immunized s.c. with CFA or CFA/Fat1562 at day 3 (n = 3). (F) Expansion of transferred CD45.2^+ vTreg53 Treg cells in the Spl/LNs or VAT of CD45.1^+ B6 recipient mice that were primed with CFA/fat1562 s.c. and boosted with IFA/Fat1562 i.p. (n ≥ 3). Data are mean ± SD. Data shown are representative of at least two independent experiments. Figure 4—figure supplement 1. Single cell TCR sequencing (scTCR-seq) analyses of fat1562-reactive endogenous Treg cells following immunization. (A) Scheme of the experiment. (B) Flow cytometric analysis of fat1562/A^b -PE tetramer+ Treg cells in Spl/LNs (enriched by anti-PE beads) or VAT (not enriched) of mice immunized with adjuvant alone or adjuvant/fat1562. Plot is a representative of mice that did show detectable expansion of tetramer+ Tregs. (C) Numbers of fat1562/A^b -PE tetramer+ Treg cells in Spl/LNs or VAT of mice immunized with adjuvant alone or adjuvant/fat1562 (D) Summary of the frequency and CDR3 sequences of expanded fat1562/A^b -PE tetramer+ Treg clones. [drawing 5] TEXT PRINTED IN THE PICTURE: (A) Fat7: 51 (1μM); 32.1 (0.1μM); 16.4 (0.01μM) | (A) Fat15: 59.7 (1μM); 54.4 (0.1μM); 37.1 (0.01μM) | (A) Fat1562: 61.6 (1μM); 57.6 (0.1μM); 51.8 (0.01μM) | (A) Fat2564: 44.2 (1μM); 32.5 (0.1μM); 19.3 (0.01μM) | (E) CFA: 9.6 | (E) CFA/Fat1562: 76.8 | (F) adjuvant: 0.1 (Spl/LN); 1.5 (VAT) | (F) adjuvant/Fat1562: 0.7 (Spl/LN); 38.1 (VAT) DOUBTS OF THE COPYIST ABOUT THIS PICTURE: Panels A, E, F: the gate numbers in the flow cytometry plots are printed without a measure or unit; they are copied as bare numbers. / Panel A: the row 'no peptide' (15.7, 17.1, 17.2) is a control without a substance and was left out. / Panel A, Fat1562, 1μM: the number is crossed by the histogram line; 61.6 is the best reading. / Panel E, CFA/Fat1562: the number is crossed by the histogram line; 76.8 is the best reading.
Tregs from pooled LNs of Tg^+ Foxp3-GFP^KI/y mice were labeled with CellTrace Violet dye (ThermoFisher Scientific), cultured in complete RPMI medium in the presence of 100 U/ml recombinant mouse IL-2 (peprotech), and stimulated by syngeneic APCs loaded with the indicated concentrations of different peptides. 3 days later, the proliferation and activation of clonotype^+ Treg cells was determined by flow cytometric analysis of the dilution of the CellTrace Violet dye, upregulation of CD44 expression, and downregulation of CD62L levels.

Sequence	CD44 up-regulation (0.01 µM, compared with no peptide)	proliferation (0.01 µM)	CD62L down-regulation (1 µM, n = 3)	potency on primary vTreg53 Treg cells	CD62L down-regulation (0.01 µM)
LMFKGPHAVQAVG [Fat7]	unable to promote any further proliferation and up-regulation of CD44 expression	unable to promote any further proliferation	dampened CD62L levels only moderately	–	–
TMYKNLRPWAATG [Fat2564]	–	–	–	relatively weak potency, which was comparable with that of Fat7	–
TMYKNPRPMAATG [Fat1562]	–	strongest proliferation	strongest down-regulation of CD62L	consistently the strongest SP	strongest proliferation and down-regulation of CD62L
